According to patent publication US5470714A, “One-step free fatty acid determination method” (Lidak Pharmaceuticals, priority 1993, dated 1995):
Positions count from the first letter of the chain named. Like-named read-outs stand apart in the source and are kept apart here.

Columns and labels:
[1] = molecular target: T1, ADIFAB (Rattus norvegicus, UniProt P02693); experiment: Specificity of ADIFAB: effect of potential competitor molecules on ADIFAB fluorescence and on oleic acid binding; conditions: up to maximum concentrations: lysolecithin 100mM, sphingosine 100mM, bilirubin 50mM, leukotriene C4 32mM, 5-HETE 10mM, prostaglandin D2 5mM; from ethanol 0.1% by volume
T1 construct: acrylodan covalently attached at Lys27 (chemical label, no substitution)
T1 sequence (P02693 1-132): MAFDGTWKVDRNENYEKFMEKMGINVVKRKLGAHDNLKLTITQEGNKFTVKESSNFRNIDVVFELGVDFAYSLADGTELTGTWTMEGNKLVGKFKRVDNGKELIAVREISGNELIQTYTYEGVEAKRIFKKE
Experimental: ADIFAB is highly specific for long chain FA. […] The interaction between ADIFAB and a variety of molecules that are either formed in association with FA or coexist with FA in plasma and might therefore compete with FA for binding to ADI FAB were examined. The following molecules were investigated up to the maximum concentrations indicated in parenthesis; lysolecithin (100mM), sphingosine (1 00mM), bilirubin (50mM), leukotriene C4 (32mM), (5S)-5- Hydroxy-6,8, 11,14-eicasatetaenoic acid (5-HETE) (10mM), and prostaglandin D2 (5mM). […] (Since these molecules are water insoluble they were added to ADIFAB from ethanol, at 0.1% by volume, which itself causes an Ro increase by about 12% but has no effect on the Kd for oleate binding. )

[2] = molecular target: ADIFAB (Acrylodan derivatized native rat I-FABP, Lys27) (Rattus norvegicus, UniProt P02693); experiment: biochemical; format: binding; conditions: for Kd relative to oleate (fold greater than oleate): normalized to oleate
Experimental: In most of the studies FFA was added to ADIFAB, in a buffer (A) consisting of 10 Mm HEPES, 150 Mm NaCI, 5 mM KCI, and 1 mM NaHPO4 at pH 7.4, as the sodium salt of the fatty acid. […] FA bind to most surfaces and values of the total FA concentration ([FAT]) were corrected for FA binding to cuvette and container walls. This binding was determined using trace amounts of […] labeled FA and, separately, ADIFAB florescence to determine the degree of FA loss upon transfer from one container to another. […] To minimize FA binding to surfaces, the monomer concentrations of stock solutions of the Na salts were maintained at pH >9.0 in water, and were warmed to >37° C. just prior to use. The polyunsaturated forms of the FA are subject to oxidation and it was observed that dissociation constants for binding to ADIFAB (Kd) were considerably greater for the oxidized FA. Care was taken to reduce the exposure of the FA salts to oxygen (all handling was carried out under Argon) and to store them at -20° C.
The concentrations of FA in the aqueous phase (FFA) and FA bound to ADIFAB ([FAb ]) were determined from the ratio of fluorescence emission intensities at 432 and 505 nm (R). The values FFA and [FAb ]were related to the ratio of intensities essentially by the method of Grynkiewicz et. al. (Grynkiewicz, G., Poenie, M., & Tsien, R. Y. (1985) J. Biol. Chem. 260, 3440-3450), according to which:
[FAb ]=[ADIFABtotal ]Q(fr)/(1-fr+FRQ) FR
are the ADIFAB intensities with zero and saturating concentrations of FFA, Ro is the intensity ratio in the absence of FFA and Rmax is the value when ADIFAB is saturated.
Because of the limiting solubility of long chain FA in aqueous solution Rmax and Q cannot. in general, be determined directly. To determine Rmax and Q, ADIFAB was titrated with lauric acid (12:0) whose high CMC allowed maximum R values (~10-11) to be measured that were considerably greater than with longer chain FA. From this titration a linear correlation was found between Q and R. Using Q, R pairs predicted by this relationship, a two parameter (Kd and Rmax) least squares analysis of each FA was done using the equation for equilibrium binding;
1/[FAb ]=(Kd/[ADIFAB])/FFA+1/[ADIFAB] (3)
Optimal Q and Rmax values obtained in this analysis were in the range 17-22 and 10 and 13, respectively, with average values of 19.5 and 11.5. Final Kd values for each FA were then determined by least squares analysis of equation (3) with Q and Rmax fixed at 19.5 and 11.5, respectively.
Fluorescence measurements to monitor Acrylodan fluorescence in various solvents, to monitor adduct formation, and to obtain complete spectra were carried out using an SLM 8000C fluorometer. Measurements of the 505/432 intensity ratios (R values) used to monitor the FFA titrations of ADIFAB were done with either the SLM 8000C or a Perkin-Elmer MPF-2A fluorometer.
ADIFAB dose response to FFA and FFA aggregate formation was measured. The ratio of fluorescent intensities at emission wavelengths of 505/432 nm were measured as a function of added Na salts of several FFA. Resulting data are depicted graphically in FIGS. 6A, 6B and 6C. Conditions were similar to those used in FIG. 3 except that 100mM EGTA was used in obtaining the data depicted in FIGS. 6A and 6B, while the data depicted in FIG. 6C was obtained using 1 mM CaCl2. Measured R values were used to determine FFA and [FFAb]using equations (1) and (2). The solid curves through the data of FIGS. 6A and 6C represent best fits of equation (3) obtained using a non-linear least squares algorithm. Aggregate formation was detected by measuring 90° light scattering from FFA in the buffer of FIG. 3 containing no added calcium and titrated with the Na salts of the FFA as described above, see FIG. 6B. The smoothed curves through the data, intended to guide-the-eye, indicate that aggregate formation, as detected by a sharp increase in light scattering, is approximately coincident with the maximum R value observed in the experiment related to FIG. 6A. […]

[3] = Fluorescence response of fluorescent-FABP probes to fatty acid binding; format: biochemical
Source text: Principles and exemplary methods for constructing probes as described and defined herein and methods for determining FFA levels are described in detail below. Using these principles fourteen different fluorescent-FABP derivatives have been constructed. This has been done using 3 different native FABPs (rat intestine (I-FABP), human adipocyte (A-FABP), and human heart (H-FABP)) plus 4 site-specific mutants of two of these (I-FABP, (Thr83Cys83, Thr81Cys81, Lys27Cys27 and H-FABP, Thr27Lys27), and these proteins have been derivatized with 4 different fluorophores (acrylodan, danzyl aziridine, 4-[N-[(2-iodoacetoxy)ethyl]-N-methylamino]-7-nitrobenz-2-oxa1,3-diazole ester (IANBDE), 4-[N-[(2-iodoacetoxy)ethyl]-N-methylamino]-7-nitrobenz-2-oxa-1,3-diazole these derivatives can serve as FFA probes, to some degree. To date, however, ADIFAB remains the one that has optimal properties for current applications. Obviously, by occupying, partially, the binding site with a fluorophore, FA must compete for its site and therefore the FA binding constant for the FABP may be altered from the native protein. This is indeed the case for ADIFAB for which the Kd is about 10 fold greater than for the native protein. So long as FA can bind, however, the derivatized molecule can still function as a FFA probe and so long as the probe's dynamic range is sufficient (as it is for ADIFAB, IANBDE and IANBDA) then FFA levels over a wide range, including those that are physiologic, can be measured.
The Cys27 mutant of I-FABP (Lys27 to Cys27) with acrylodan, IANBDE and IANBDA have also been labeled using the technique described. […] This is the behavior predicted from the construction principles set forth herein, and reflects the shorter tethering arm to Cys27 as compared to Lys27 which prevents the deeper insertion into the binding site that is observed in the Lys27 derivative. […] Thus, those skilled in the art can with considerable confidence predict whether protein modifications and/or choice of label will result in a FFA responsive probe.
Site-directed mutagenesis was used to introduce a cysteine residue at positions 82 or 84, in place of the threonine residues that are normally at this position. Mutagenesis was carried out by annealing a synthetic prirner with a single mismatched base to the above derived expression vector. The primer was extended and ligated in vitro, and the resulting heteroduplex was used to transfect the host strain. The transfected host was screened for the mutated DNA by hybridization with the mutating oligonucleotide. Mutated plasmid DNA was isolated, retransformed into the host strain, and its structure confirmed by sequencing the recombinant DNA in regions defined by probes flanking the mutated region. This modified protein was expressed in the same system and purified by the same methods as for the native protein. Typical yields of purified protein were approximately 50 mg/liter cell culture. The mutated I-FABP protein was fluorescently derivatized by inserting a fluorescent group (which reacts specifically with free SH groups) at the newly created cysteine residue. The cysteine residue was inserted at positions 82 (replacing a threonine residue) and/or at residue 84 (also a threonine residue) since both these positions face outward from the FFA binding pocket but are in close proximity to the tryptophan at position 83 (about 3.5Å lateral separation along the b strand and about 10Å vertical separation between the centers of the tryptophan and fluorescent residues). […] Thus, either the direct emission of the fluorescent group and/or the rate of resonance energy transfer between Trp83 and the fluorescent group was postulated to change. In a non-limiting prior specific example, the dansyl derivative ACRYLODAN®(6-acryloly-2dimethylamenonaphthalene) was used to modify the mutated FABP and this probe was designated FAD508.
ADIFAB dose response to FFA and FFA aggregate formation was measured. […]

[4] = FA-ADIFAB Dissociation Constants, Kd, no added calcium, FIG. 6A, buffer A pH 7.4

CCCCC/C=C\C/C=C\C/C=C\C=C\[C@@H](O)CCCC(=O)O [5-HETE, (5S)-5-Hydroxy-6,8, 11,14-eicasatetaenoic acid]
change in ADIFAB fluorescence by the molecule itself [1]: none of these molecules, either themselves cause a change in ADIFAB fluorescence | displacement of oleic acid binding to ADIFAB [1]: nor do they displace oleic acid binding to ADIFAB

CCCCC/C=C\C/C=C\C/C=C\C/C=C\CCCC(=O)O [ARACHIDONATE, arachidonate]
Kd [2, 4]: 1.63 ± 0.03 µM | Kd ([2]; Kd in the presence of calcium, 1 mM calcium): 1.67 µM | Kd relative to oleate (fold greater than oleate) [2]: ~5.8 fold

CCCCC/C=C\C/C=C\CCCCCCCC(=O)O [LINOLEATE, linoleate]
Kd [2, 4]: 0.97 ± 0.02 µM | Kd relative to oleate (fold greater than oleate) [2]: ~3.5 fold

CC/C=C\C/C=C\C/C=C\CCCCCCCC(=O)O [LINOLENATE, linolenate]
ADIFAB sensitivity to FFA levels (lowest detectable level) [2]: about 20 nM | Kd [2, 4]: 2.5 ± 0.1 µM | Kd relative to oleate (fold greater than oleate) [2]: ~8.9 fold

C=CC1=C(C)/C(=C/c2[nH]c(Cc3[nH]c(/C=C4\NC(=O)C(C)=C4C=C)c(C)c3CCC(=O)O)c(CCC(=O)O)c2C)NC1=O [bilirubin]
change in ADIFAB fluorescence by the molecule itself [1]: none of these molecules, either themselves cause a change in ADIFAB fluorescence | displacement of oleic acid binding to ADIFAB [1]: nor do they displace oleic acid binding to ADIFAB

CCCCCCCCCCCC(=O)O [laurate]
Kd ([2]; laurate (12:0), binding detectable but considerably weaker, read-out: Kd (shorter chain FA, bound)): > 200 µM

CCCCC/C=C\C\C=C/C=C/C=C/[C@@H](SC[C@H](NC(=O)CC[C@H](N)C(=O)O)C(=O)NCC(=O)O)[C@@H](O)CCCC(=O)O [leukotriene C4]
change in ADIFAB fluorescence by the molecule itself [1]: none of these molecules, either themselves cause a change in ADIFAB fluorescence | displacement of oleic acid binding to ADIFAB [1]: nor do they displace oleic acid binding to ADIFAB

CCCCC[C@H](O)/C=C/[C@H]1C(=O)C[C@H](O)[C@@H]1C/C=C\CCCC(=O)O [prostaglandin D2]
change in ADIFAB fluorescence by the molecule itself [1]: none of these molecules, either themselves cause a change in ADIFAB fluorescence | displacement of oleic acid binding to ADIFAB [1]: nor do they displace oleic acid binding to ADIFAB

CCCCCCCCCCCCC/C=C/[C@@H](O)[C@@H](N)CO [sphingosine]
change in ADIFAB fluorescence by the molecule itself [1]: none of these molecules, either themselves cause a change in ADIFAB fluorescence | displacement of oleic acid binding to ADIFAB [1]: nor do they displace oleic acid binding to ADIFAB

lysolecithin
change in ADIFAB fluorescence by the molecule itself [1]: none of these molecules, either themselves cause a change in ADIFAB fluorescence | displacement of oleic acid binding to ADIFAB [1]: nor do they displace oleic acid binding to ADIFAB

B1: ADIFAB: Acrylodan derivatized recombinant native protein (I-FABP), labeled at Lys27 (conjugate, UniProt P02693 2-132, looked up)
Fatty acid-binding protein, …: AFDGTWKVDRNENYEKFMEKMGINVVKRKLGAHDNLKLTITQEGNKFTVKESSNFRNIDVVFELGVDFAYSLADGTELTGTWTMEGNKLVGKFKRVDNGKELIAVREISGNELIQTYTYEGVEAKRIFKKE
modifications: acrylodan label at Lys27
Kd of FA relative to the native protein (fold greater) ([3]; ADIFAB versus native I-FABP): about 10 fold | increase in the 505/432 emission ratio on addition of FFA ([3]; FIG. 6A, up to): ≤ 25 fold

B2: IANBDE derivative: Cys27 mutant of I-FABP (Lys27 to Cys27) labeled with IANBDE (conjugate, UniProt P02693 2-132, looked up, variant K27C)
Fatty acid-binding protein, …: B1 Fatty acid-binding protein, … with K27C
modifications: IANBDE (NBD ester) label
responsiveness of the probe to FA binding, in words [3]: among the most sensitive | reduction in intensity at 550 nm ([3]; with 1 mM oleate, I-FABP Cys27 mutant): 60%
